# Test results taken from patent publication US8067406B2, “Preventive/remedy for retinal nerve diseases containing alkyl ether derivatives or salts thereof” (Toyama Chemical Co., Ltd., priority 2003, dated 2011).
# Experiments:
# [1] = test system: Rat Retinal Ischemia Reperfusion Model; assay: Protecting effect of retinal nerve in rat retinal ischemia reperfusion model (electroretinogram measurement); assay type: in vivo; conditions: SD rats, 30 min retinal ischemia; 10 mg/kg orally twice a day for 14 days from 2 days after reperfusion; ERG about 1 hour after final administration; distilled water control group 35%
# Description: A rat retinal ischemia reperfusion model was prepared by a partially modified method of Steven Roth et al. (Experimental Eye Research, Vol. 65, pp. 771-779, 1997).
# As experimental animals, SD rats (SPF, 9-week-old, male, approximately 300 g of body weight) were used. Such rats were anesthetized with halothane (introduction: 4%; retention: 2%; gas composition: 70% air+30% oxygen; gas flow rate: 2 L/min). The rat was placed on a fixing plate with the left body side upward. The skin located between the external acoustic foramen and the external canthus on the left side was incised, and the skin-incised portion was held with a hook. The temporal muscle was burned out with a bipolar coagulator (output: 4.5 W), and it was detached from the cranial bone and the mandibular arch. […]
# ERG was measured in accordance with the method of Kawakami et al. (Gifu-dai Iki, Vol. 48, pp. 166-175, 2000). […] The obtained waveform was swept on a memory oscilloscope and then recorded by a thermal array recorder. […] ERG of the ischemic eye was evaluated as a ratio to the value of normal control eye. ERG was measured after adaptation to darkness at 2 days after retinal ischemia reperfusion, and at approximately 1 hour after the final administration.
melting point [°C],ratio of the ERG amplitude value of the ischemic eye to the normal control eye [1] [%],SMILES
101 to 102,,Cl.OC1CN(CCOCCc2ccc3sccc3c2)C1
,65,O=C(O)/C=C\C(=O)O.OC1CN(CCCOCCc2ccc3sccc3c2)C1 [1-(3-(2-(1-benzothiophene-5-yl)ethoxy)propyl)-3-azetidinol maleate]
